Literature values as cited in patent publication US11654154B2, “Process for preparing injectable Fosaprepitant Dimeglumine compositions having improved storage stability” (Navinta III Inc, priority 2019, dated 2023).
“Also recorded” adds a separate entry of the source.

Assays:
[1] = for Solubility in water / aqueous solution (in words): water or aqueous solution
[2] = test system: chemotherapy induced nausea and vomiting (CINV); conditions: added to standard regimen of ondansetron and dexamethasone; highly emetogenic cisplatin-based chemotherapy

Row | Solubility in water ([1]; water) | Structure (SMILES) | Solubility in water / aqueous solution (in words) [1] | Protection against CINV [2]
1 | about 300 mg/mL | C[C@@H](O[C@H]1OCCN(Cc2nc(O)n(P(=O)(O)O)n2)[C@H]1c1ccc(F)cc1)c1cc(C(F)(F)F)cc(C(F)(F)F)c1 [Fosaprepitant] | good solubility | –
2 | – | C[C@@H](O[C@H]1OCCN(Cc2n[nH]c(=O)[nH]2)[C@H]1c1ccc(F)cc1)c1cc(C(F)(F)F)cc(C(F)(F)F)c1 [Aprepitant] | limited solubility; also recorded: minimal solubility | consistently superior protection
